Where no end group is shown, it is not given here.
Test system: LRF (luteinizing hormone release factor) induced luteinizing hormone (LH) release
Experiment: In vitro test for LRF antagonist activity in rat anterior pituitary cell cultures
Format: cell-based
Description: Pentapeptides of this invention were screened for LRF antagonist activity in vitro using rat anterior pituitary cell cultures as described by Vale et. al. [Endocrinology, 91, 562 (1972)]. The inhibition of LRF (luteinizing hormone release factor) induced luteinizing hormone (LH) release into the culture medium is the endpoint in this in vitro bioassay.

[1] = compound Molar Conc. 1 × 10^-7, LRF 3.5 × 10^-10, rat anterior pituitary cell cultures
[2] = compound Molar Conc. 3 × 10^-7, LRF 3.5 × 10^-10, rat anterior pituitary cell cultures
[3] = compound Molar Conc. 5 × 10^-8, LRF 3.5 × 10^-10, rat anterior pituitary cell cultures
[4] = compound Molar Conc. 6 × 10^-7, LRF 3.5 × 10^-10, rat anterior pituitary cell cultures
[5] = compound Molar Conc. 1 × 10^-6, LRF 2.5 × 10^-10, rat anterior pituitary cell cultures

## LRF: luteinizing hormone releasing factor, formed in the hypothalamus; stimulates secretion of luteinizing hormone; used as the stimulus in the bioassay (QHWSYGLRPG; ends and bridges not checked; UniProt P01148 24-33, looked up) [reference compound]
LRF alone, Molar Conc. 2.5 × 10^-10 (control of second experiment; saline control 7.70)
  LH Value: 36.96 ng/mL
LRF alone, Molar Conc. 3.5 × 10^-10 (control of first experiment; saline control 6.46)
  LH Value: 40.46 ng/mL

## N^α -t-Butoxycarbonyl-N^im -benzyl-L-histidyl-O-methyl-L-tyrosyl-O-benzyl-L-seryl-L-tryptophyl-D-alanine N-ethylamide
[1]
  % LH Release Inhibition: 69%
  LH Value: 17.2 ng/mL
[2]
  % LH Release Inhibition: 90%
  LH Value: 10.16 ng/mL
[3]
  % LH Release Inhibition: 56%
  LH Value: 21.61 ng/mL
[4]
  % LH Release Inhibition: 98%
  LH Value: 7.72 ng/mL

## N^α -t-Butoxycarbonyl-N^im -benzyl-L-histidyl-O-methyl-L-tyrosyl-O-benzyl-L-seryl-L-tryptophyl-D-alanine methyl ester
[5]
  % LH Release Inhibition: 69%
  LH Value: 16.89 ng/mL

— US4062835A, “Pentapeptides and methods for their production” (Parke, Davis & Company, priority 1976, dated 1977)
